In patent US20100069632A1, “SALTS OF PYRROLOPYRIMIDINONE DERIVATIVES AND PROCESS FOR PREPARING THE SAME” (SK CHEMICALS CO., LTD, priority 2006, published 2010):
Structures can show the parent of a compound that is named as a salt.

What was measured:
Hygroscopicity = format: physicochemical; settings: statement in words, no test described
[1] = Thermal stability test at 105° C., impurity content and color change; format: physicochemical; settings: for Impurity content (%), 3 hours / Color change, 3 hours / Impurity content (%), 48 hours / Color change, 48 hours: dryer at 105° C.; for Color change, 3 hours / Color change, 48 hours: macroscopic observation; for Thermal stability compared with the SK-3530 dihydrochloride salt: summary of Tables 6 and 7; for Color change, Initial / Impurity content (%), Initial: thermal stability test
Protocol: The following Table 6 and Table 7 show the thermal stability test result for dihydrochloride salt (2HCl), gentisate, maleate, citrate, fumarate and hemitartrate salts of SK-3530. Each salt was placed on a Petri dish and kept in a dryer at 105° C. Following macroscopic observation at 3 hours and 48 hours later, the content of impurities was measured with liquid chromatography.

[2] = Photostability test (UV and visible light), impurity content and color change; format: physicochemical; settings: for Color change, Initial / Impurity content (%), Initial: photostability test; for Photostability against UV and visible light compared with the SK-3530 dihydrochloride salt: summary of Tables 4 and 5; for Color change, UV / Impurity content (%), UV: total UV radiation 200 W·h/m^2; for Color change, UV / Impurity content (%), UV / Color change, Visible / Impurity content (%), Visible: 25° C., 60% humidity; for Impurity content (%), UV / Impurity content (%), Visible: Petri dish; for Color change, Visible / Impurity content (%), Visible: total visible light radiation 1080 klux/m^2h
Protocol: The following Table 4 and Table 5 show the photostability test result for dihydrochloride salt (2HCl), gentisate, maleate, citrate, fumarate and hemitartrate salts of SK-3530. The total ultraviolet (UV) radiation was 200 W·h/m^2 and the total visible light radiation was 1080 klux/m^2h. Each salt was kept on a Petri dish under the condition of 25° C. and 60% humidity.

[3] = Water and atmospheric (storage) stability: total impurities by liquid chromatography after storage; format: physicochemical; settings: for Storage stability compared with the SK-3530 dihydrochloride salt: summary of Tables 1 to 3
Protocol: This test is for confirming the storage stability of SK-3530 salt.
A sufficient stability is required to process a drug into a particular medication form. For instance, preparation into tablet or capsule requires atmospheric stability and preparation into injection may require water stability.
The following Table 1 (25° C., 75% humidity), Table 2 (40° C., 60% humidity) and Table 3 (50° C., 75% humidity) show the content of total impurities measured by liquid chromatography after storing dihydrochloride (2HCl), gentisate, maleate, citrate, fumarate and hemitartrate salts of SK-3530 for 1 week and 3 weeks.

Solubility = format: physicochemical; settings: statement in words, no test described
PDE-5 = PDE-5 (Homo sapiens, UniProt O76074); settings: statement in words; cited from earlier work

SMILES: CCCOc1ccc(S(=O)(=O)N2CCN(CCO)CC2)cc1-c1nc2c(CCC)cn(CC)c2c(=O)[nH]1 [SK-3530 citrate salt]
- Hygroscopicity (Hygroscopicity): non-hygroscopic
- Impurity content (%), 3 hours [1]: 0.30%
- Color change, 3 hours [1]: White
- Impurity content (%), 48 hours [1]: 1.81%
- Color change, 48 hours [1]: White
- Thermal stability compared with the SK-3530 dihydrochloride salt [1]: much superior
- Color change, Initial [1]: White
- Impurity content (%), Initial [1]: 0.12%
- Color change, Initial [2]: White
- Impurity content (%), Initial [2]: 0.12%
- Photostability against UV and visible light compared with the SK-3530 dihydrochloride salt [2]: much superior
- Color change, UV [2]: White
- Impurity content (%), UV [2]: 0.37%
- Color change, Visible [2]: White
- Impurity content (%), Visible [2]: 0.14%
- Impurity content (%) at 25° C., 75% humidity, 1 week [3]: 0.15%
- Impurity content (%) at 25° C., 75% humidity, 3 weeks [3]: 0.15%
- Impurity content (%) at 25° C., 75% humidity, Initial [3]: 0.12%
- Impurity content (%) at 40° C., 60% humidity, 1 week [3]: 0.13%
- Impurity content (%) at 40° C., 60% humidity, 3 weeks [3]: 0.14%
- Impurity content (%) at 40° C., 60% humidity, Initial [3]: 0.12%
- Impurity content (%) at 50° C., 75% humidity, 1 week [3]: 0.14%
- Impurity content (%) at 50° C., 75% humidity, 3 weeks [3]: 0.14%
- Impurity content (%) at 50° C., 75% humidity, Initial [3]: 0.12%
- Storage stability compared with the SK-3530 dihydrochloride salt [3]: much superior

SMILES: CCCOc1ccc(S(=O)(=O)N2CCN(CCO)CC2)cc1-c1nc2c(CCC)cn(CC)c2c(=O)[nH]1.Cl.Cl [SK-3530 dihydrochloride salt, reference compound]
- Hygroscopicity (Hygroscopicity): hygroscopic
- Impurity content (%), 3 hours [1]: 3.06%
- Color change, 3 hours [1]: White
- Impurity content (%), 48 hours [1]: 14.37%
- Color change, 48 hours [1]: Yellow
- Color change, Initial [1]: White
- Impurity content (%), Initial [1]: 0.20%
- Color change, Initial [2]: White
- Impurity content (%), Initial [2]: 0.20%
- Color change, UV [2]: Brown
- Impurity content (%), UV [2]: 5.92%
- Color change, Visible [2]: Yellow
- Impurity content (%), Visible [2]: 1.37%
- Impurity content (%) at 25° C., 75% humidity, 1 week [3]: 0.24%
- Impurity content (%) at 25° C., 75% humidity, 3 weeks [3]: 0.31%
- Impurity content (%) at 25° C., 75% humidity, Initial [3]: 0.20%
- Impurity content (%) at 40° C., 60% humidity, 1 week [3]: 0.24%
- Impurity content (%) at 40° C., 60% humidity, 3 weeks [3]: 0.38%
- Impurity content (%) at 40° C., 60% humidity, Initial [3]: 0.20%
- Impurity content (%) at 50° C., 75% humidity, 1 week [3]: 0.27%
- Impurity content (%) at 50° C., 75% humidity, 3 weeks [3]: 0.42%
- Impurity content (%) at 50° C., 75% humidity, Initial [3]: 0.20%
- Solubility (Solubility): good solubility

SMILES: CCCOc1ccc(S(=O)(=O)N2CCN(CCO)CC2)cc1-c1nc2c(CCC)cn(CC)c2c(=O)[nH]1 [SK-3530 fumarate salt]
- Hygroscopicity (Hygroscopicity): non-hygroscopic
- Impurity content (%), 3 hours [1]: 0.11%
- Color change, 3 hours [1]: White
- Impurity content (%), 48 hours [1]: 0.61%
- Color change, 48 hours [1]: White
- Thermal stability compared with the SK-3530 dihydrochloride salt [1]: much superior
- Color change, Initial [1]: White
- Impurity content (%), Initial [1]: 0.02%
- Color change, Initial [2]: White
- Impurity content (%), Initial [2]: 0.02%
- Photostability against UV and visible light compared with the SK-3530 dihydrochloride salt [2]: much superior
- Color change, UV [2]: Pale yellow
- Impurity content (%), UV [2]: 0.08%
- Color change, Visible [2]: White
- Impurity content (%), Visible [2]: 0.07%
- Impurity content (%) at 25° C., 75% humidity, 1 week [3]: 0.02%
- Impurity content (%) at 25° C., 75% humidity, 3 weeks [3]: 0.03%
- Impurity content (%) at 25° C., 75% humidity, Initial [3]: 0.02%
- Impurity content (%) at 40° C., 60% humidity, 1 week [3]: 0.02%
- Impurity content (%) at 40° C., 60% humidity, 3 weeks [3]: 0.05%
- Impurity content (%) at 40° C., 60% humidity, Initial [3]: 0.02%
- Impurity content (%) at 50° C., 75% humidity, 1 week [3]: 0.02%
- Impurity content (%) at 50° C., 75% humidity, 3 weeks [3]: 0.05%
- Impurity content (%) at 50° C., 75% humidity, Initial [3]: 0.02%
- Storage stability compared with the SK-3530 dihydrochloride salt [3]: much superior

SMILES: CCCOc1ccc(S(=O)(=O)N2CCN(CCO)CC2)cc1-c1nc2c(CCC)cn(CC)c2c(=O)[nH]1 [SK-3530 gentisate salt]
- Hygroscopicity (Hygroscopicity): non-hygroscopic
- Impurity content (%), 3 hours [1]: 0.09%
- Color change, 3 hours [1]: White
- Impurity content (%), 48 hours [1]: 0.13%
- Color change, 48 hours [1]: White
- Thermal stability compared with the SK-3530 dihydrochloride salt [1]: much superior
- Color change, Initial [1]: White
- Impurity content (%), Initial [1]: 0.09%
- Color change, Initial [2]: White
- Impurity content (%), Initial [2]: 0.09%
- Photostability against UV and visible light compared with the SK-3530 dihydrochloride salt [2]: much superior
- Color change, UV [2]: Pale yellow
- Impurity content (%), UV [2]: 0.36%
- Color change, Visible [2]: Pale yellow
- Impurity content (%), Visible [2]: 0.17%
- Impurity content (%) at 25° C., 75% humidity, 1 week [3]: 0.09%
- Impurity content (%) at 25° C., 75% humidity, 3 weeks [3]: 0.12%
- Impurity content (%) at 25° C., 75% humidity, Initial [3]: 0.09%
- Impurity content (%) at 40° C., 60% humidity, 1 week [3]: 0.10%
- Impurity content (%) at 40° C., 60% humidity, 3 weeks [3]: 0.10%
- Impurity content (%) at 40° C., 60% humidity, Initial [3]: 0.09%
- Impurity content (%) at 50° C., 75% humidity, 1 week [3]: 0.09%
- Impurity content (%) at 50° C., 75% humidity, 3 weeks [3]: 0.10%
- Impurity content (%) at 50° C., 75% humidity, Initial [3]: 0.09%
- Storage stability compared with the SK-3530 dihydrochloride salt [3]: much superior

SMILES: CCCOc1ccc(S(=O)(=O)N2CCN(CCO)CC2)cc1-c1nc2c(CCC)cn(CC)c2c(=O)[nH]1 [SK-3530 hemitartrate salt]
- Hygroscopicity (Hygroscopicity): non-hygroscopic
- Impurity content (%), 3 hours [1]: 0.14%
- Color change, 3 hours [1]: White
- Impurity content (%), 48 hours [1]: 0.70%
- Color change, 48 hours [1]: White
- Thermal stability compared with the SK-3530 dihydrochloride salt [1]: much superior
- Color change, Initial [1]: White
- Impurity content (%), Initial [1]: 0.07%
- Color change, Initial [2]: White
- Impurity content (%), Initial [2]: 0.07%
- Photostability against UV and visible light compared with the SK-3530 dihydrochloride salt [2]: much superior
- Color change, UV [2]: White
- Impurity content (%), UV [2]: 0.52%
- Color change, Visible [2]: White
- Impurity content (%), Visible [2]: 0.21%
- Impurity content (%) at 25° C., 75% humidity, 1 week [3]: 0.09%
- Impurity content (%) at 25° C., 75% humidity, 3 weeks [3]: 0.13%
- Impurity content (%) at 25° C., 75% humidity, Initial [3]: 0.07%
- Impurity content (%) at 40° C., 60% humidity, 1 week [3]: 0.10%
- Impurity content (%) at 40° C., 60% humidity, 3 weeks [3]: 0.14%
- Impurity content (%) at 40° C., 60% humidity, Initial [3]: 0.07%
- Impurity content (%) at 50° C., 75% humidity, 1 week [3]: 0.11%
- Impurity content (%) at 50° C., 75% humidity, 3 weeks [3]: 0.13%
- Impurity content (%) at 50° C., 75% humidity, Initial [3]: 0.07%
- Storage stability compared with the SK-3530 dihydrochloride salt [3]: much superior

SMILES: CCCOc1ccc(S(=O)(=O)N2CCN(CCO)CC2)cc1-c1nc2c(CCC)cn(CC)c2c(=O)[nH]1 [SK-3530 maleate salt]
- Hygroscopicity (Hygroscopicity): non-hygroscopic
- Impurity content (%), 3 hours [1]: 0.15%
- Color change, 3 hours [1]: White
- Impurity content (%), 48 hours [1]: 0.74%
- Color change, 48 hours [1]: White
- Thermal stability compared with the SK-3530 dihydrochloride salt [1]: much superior
- Color change, Initial [1]: White
- Impurity content (%), Initial [1]: 0.12%
- Color change, Initial [2]: White
- Impurity content (%), Initial [2]: 0.12%
- Photostability against UV and visible light compared with the SK-3530 dihydrochloride salt [2]: much superior
- Color change, UV [2]: White
- Impurity content (%), UV [2]: 0.35%
- Color change, Visible [2]: White
- Impurity content (%), Visible [2]: 0.14%
- Impurity content (%) at 25° C., 75% humidity, 1 week [3]: 0.12%
- Impurity content (%) at 25° C., 75% humidity, 3 weeks [3]: 0.12%
- Impurity content (%) at 25° C., 75% humidity, Initial [3]: 0.12%
- Impurity content (%) at 40° C., 60% humidity, 1 week [3]: 0.12%
- Impurity content (%) at 40° C., 60% humidity, 3 weeks [3]: 0.12%
- Impurity content (%) at 40° C., 60% humidity, Initial [3]: 0.12%
- Impurity content (%) at 50° C., 75% humidity, 1 week [3]: 0.15%
- Impurity content (%) at 50° C., 75% humidity, 3 weeks [3]: 0.19%
- Impurity content (%) at 50° C., 75% humidity, Initial [3]: 0.12%
- Storage stability compared with the SK-3530 dihydrochloride salt [3]: much superior

SMILES: CCCOc1ccc(S(=O)(=O)N2CCN(CCO)CC2)cc1-c1nc2c(CCC)cn(CC)c2c(=O)[nH]1 [SK-3530, 5-ethyl-2-{5-[4-(2-hydroxyethyl)piperazin-1-ylsulfonyl]-2-n-propoxyphenyl}-7-n-propyl-I-3,5-dihydro-4H-pyrrolo[3,2-d]pyrimidin-4-one]
- Selectivity for PDE-5 over other PDEs (PDE-5): excellent selective inhibitor
